ChEMBL document CHEMBL4229350, “Antimicrobial activity and self-assembly behavior of antimicrobial peptide chensinin-1b with lipophilic alkyl tails” (Eur J Med Chem, 2018)
Converted amounts (≈) assume the structure as drawn. The source made the active and inactive calls. No cut-off for these calls is given here. Peptide text beside a SMILES is read from it. * marks the point of attachment. Lauroyl = CCCCCCCCCCCC(=O)*; Octanoyl = CCCCCCCC(=O)*

Legend:
[1] = system: MCF7; assay: Cytotoxicity against human MCF7 cells assessed as reduction in cell viability after 1 hr by MTT assay; assay type: functional, cell-based; details: MCF7, 1 h
[2] = system: HeLa; assay: Cytotoxicity against human HeLa cells assessed as reduction in cell viability after 1 hr by MTT assay; assay type: functional, cell-based
[3] = system: Lipid bilayer; assay: Induction of membrane permeabilization in PC/cholesterol large unilamellar vesicles assessed as blue shift by Tryptophan fluorescence spectroscopy
[4] = system: Pseudomonas aeruginosa; assay: Antimicrobial activity against Pseudomonas aeruginosa CGMCC 1.860 after 18 hrs by micro dilution method; assay type: functional; details: CGMCC 1.860, 18 h
[5] = system: Lipid bilayer; assay: Induction of membrane permeabilization in PG/CL/PE large unilamellar vesicles assessed as blue shift at compound to lipid ratio of 10 by Tryptophan fluorescence spectroscopy
[6] = system: Lipid bilayer; assay: Induction of membrane permeabilization in calcein loaded PG/CL large unilamellar vesicles assessed as calcein leakage at 6 uM after 15 mins by fluorescence assay relative to control
[7] = system: Staphylococcus aureus; assay: Antimicrobial activity against Staphylococcus aureus AS 1.72 assessed as induction of bacterial cytoplasmic membrane depolarization at 2 times MIC after 4 mins by diSC3-5 dye-based fluorescence assay; assay type: functional, organism-based
[8] = system: U-937; assay: Antiinflammatory activity in human U937 cells assessed as inhibition of LPS-induced IL-6 production at 3.13 uM after 24 hrs by ELISA relative to control; assay type: functional; details: U-937, 24 h
[9] = system: U-937; assay: Antiinflammatory activity in human U937 cells assessed as inhibition of LPS-induced TNF-alpha production after 24 hrs by ELISA; assay type: functional, cell-based
[10] = system: Lipid bilayer; assay: Induction of membrane permeabilization in calcein loaded PG/CL/PE large unilamellar vesicles assessed as calcein leakage at 3 uM after 10 mins by fluorescence assay relative to control
[11] = system: U-937; assay: Antiinflammatory activity in human U937 cells assessed as inhibition of LPS-induced TNF-alpha production at 12.6 uM after 24 hrs by ELISA relative to control; assay type: functional; details: U-937, 24 h
[12] = system: U-937; assay: Antiinflammatory activity in human U937 cells assessed as inhibition of LPS-induced IL-6 production at 12.6 uM after 24 hrs by ELISA relative to control; assay type: functional; details: U-937, 24 h
[13] = system: Staphylococcus aureus; assay: Antimicrobial activity against Staphylococcus aureus AS 1.72 assessed as induction of outer membrane permeabilization by measuring NPN uptake by fluorescence assay; assay type: functional, organism-based
[14] = system: Lipid bilayer; assay: Induction of membrane permeabilization in calcein loaded LPS/PC/PG large unilamellar vesicles assessed as calcein leakage at 50 uM after 15 mins by fluorescence assay relative to control
[15] = system: Enterococcus faecalis; assay: Antimicrobial activity against Enterococcus faecalis CGMCC 1.595 after 18 hrs by micro dilution method; assay type: functional; details: CGMCC 1.595, 18 h
[16] = system: U-937; assay: Antiinflammatory activity in human U937 cells assessed as inhibition of LPS-induced IL-6 production at 6.25 uM after 24 hrs by ELISA relative to control; assay type: functional; details: U-937, 24 h
[17] = system: U-937; assay: Antiinflammatory activity in human U937 cells assessed as inhibition of LPS-induced TNF-alpha production at 3.13 uM after 24 hrs by ELISA relative to control; assay type: functional; details: U-937, 24 h
[18] = system: Staphylococcus aureus; assay: Antimicrobial activity against Staphylococcus aureus AS 1.72 after 18 hrs by micro dilution method; assay type: functional; details: AS 1.72, 18 h
[19] = system: Lipid bilayer; assay: Induction of membrane permeabilization in calcein loaded LPS/PC/PG large unilamellar vesicles assessed as calcein leakage after 15 mins by fluorescence assay
[20] = system: Lipid bilayer; assay: Induction of membrane permeabilization in calcein loaded PC/cholesterol large unilamellar vesicles assessed as calcein leakage at 50 uM after 10 mins by fluorescence assay relative to control
[21] = system: Escherichia coli; assay: Antimicrobial activity against Escherichia coli AS 1.349 assessed as induction of outer membrane permeabilization by measuring NPN uptake by fluorescence assay; assay type: functional, organism-based
[22] = system: Lipid bilayer; assay: Induction of membrane permeabilization in calcein loaded PG/CL/PE large unilamellar vesicles assessed as calcein leakage at 6 uM after 15 mins by fluorescence assay relative to control
[23] = system: Lipid bilayer; assay: Induction of membrane permeabilization in PG/CL large unilamellar vesicles assessed as blue shift at compound to lipid ratio of 60 by Tryptophan fluorescence spectroscopy
[24] = system: U-937; assay: Antiinflammatory activity in human U937 cells assessed as inhibition of LPS-induced IL-6 production after 24 hrs by ELISA; assay type: functional, cell-based
[25] = system: Lipopolysaccharide (LPS); assay: Binding affinity to Escherichia coli 0111:B4 LPS by ITC method
[26] = Self-assembly property assessed as diameter of monodispersed micelles at 1 mg/ml at pH 7 by TEM analysis; assay type: physicochemical
[27] = system: Lipid bilayer; assay: Induction of membrane permeabilization in calcein loaded PG/CL large unilamellar vesicles assessed as calcein leakage at 3 uM after 10 mins by fluorescence assay relative to control
[28] = system: Enterococcus faecium; assay: Antimicrobial activity against Enterococcus faecium CGMCC 1.2334 after 18 hrs by micro dilution method; assay type: functional; details: CGMCC 1.2334, 18 h
[29] = system: Lipopolysaccharide (LPS); assay: Induction of LPS micelles disaggergation assessed as abundant particle size formation at 2 uM by DLS method
[30] = system: A-375; assay: Cytotoxicity against human A375 cells assessed as reduction in cell viability after 1 hr by MTT assay; assay type: functional, cell-based; details: A-375, 1 h
[31] = Cytotoxicity against human U937 cells assessed as cell viability at 3.13 to 12.6 uM after 1 hr by MTT assay relative to control; assay type: cell-based, U-937; details: read-out: Activity
[32] = system: Escherichia coli; assay: Antimicrobial activity against Escherichia coli AS 1.349 assessed as induction of bacterial cytoplasmic membrane depolarization at 2 times MIC after 5 mins by diSC3-5 dye-based fluorescence assay; assay type: functional, organism-based
[33] = Self-assembly property assessed as diameter of monodispersed micelles at 1 mg/ml at pH 7 readjusted from pH 2 by TEM analysis; assay type: physicochemical
[34] = system: U-937; assay: Antiinflammatory activity in human U937 cells assessed as inhibition of LPS-induced TNF-alpha production at 6.25 uM after 24 hrs by ELISA relative to control; assay type: functional; details: U-937, 24 h
[35] = Hemolytic activity against human erythrocytes after 1 hr; assay type: ADME, cell-based, Erythrocyte
[36] = system: Lactococcus lactis; assay: Antimicrobial activity against Streptococcus lactis AS 1.1690 after 18 hrs by micro dilution method; assay type: functional; details: AS 1.1690, 18 h
[37] = system: Lipopolysaccharide (LPS); assay: Induction of LPS micelles disaggergation assessed as small particle distribution at 2 uM by DLS method
[38] = system: Bacillus cereus; assay: Antimicrobial activity against Bacillus cereus AS 1.126 after 18 hrs by micro dilution method; assay type: functional; details: AS 1.126, 18 h
[39] = system: Lipopolysaccharide (LPS); assay: Binding affinity to Escherichia coli 0111:B4 LPS assessed as equilibrium association constant by ITC method
[40] = system: Escherichia coli; assay: Antimicrobial activity against Escherichia coli AS 1.349 after 18 hrs by micro dilution method; assay type: functional; details: AS 1.349, 18 h
[41] = system: Escherichia coli; assay: Antimicrobial activity against Escherichia coli AS 1.349 assessed as induction of outer membrane permeabilization by measuring NPN uptake up to 50 uM by fluorescence assay; assay type: functional, organism-based
[42] = system: Staphylococcus aureus; assay: Antimicrobial activity against Staphylococcus aureus AS 1.72 assessed as induction of outer membrane permeabilization by measuring NPN uptake up to 50 uM by fluorescence assay; assay type: functional, organism-based
[43] = system: Staphylococcus aureus; assay: Antimicrobial activity against Staphylococcus aureus AS 1.72 assessed as induction of bacterial cytoplasmic membrane depolarization at 2 times MIC after 5 mins by diSC3-5 dye-based fluorescence assay; assay type: functional, organism-based
[44] = system: Escherichia coli; assay: Antimicrobial activity against Escherichia coli AS 1.349 assessed as induction of bacterial cytoplasmic membrane depolarization at 2 times MIC after 6 mins by diSC3-5 dye-based fluorescence assay; assay type: functional, organism-based

In the case of `CCCCCCCC(=O)N[C@@H](CO)C(=O)N[C@@H](CCCCN)C(=O)N[C@H](C(=O)N[C@@H](Cc1c[nH]c2ccccc12)C(=O)N[C@@H](CCCNC(=N)N)C(=O)N[C@@H](Cc1cnc[nH]1)C(=O)N[C@@H](Cc1c[nH]c2ccccc12)C(=O)N[C@@H](CCCNC(=N)N)C(=O)N[C@@H](CCCNC(=N)N)C(=O)N[C@@H](Cc1ccccc1)C(=O)N[C@@H](Cc1c[nH]c2ccccc12)C(=O)N[C@@H](Cc1cnc[nH]1)C(=O)N[C@@H](CCCNC(=N)N)C(=O)N[C@@H](C)C(=O)N[C@@H](Cc1cnc[nH]1)C(=O)N[C@@H](CCCNC(=N)N)C(=O)N[C@@H](CCCCN)C(=O)N[C@@H](CC(C)C)C(=O)O)C(C)C` (Octanoyl-SKVWRHWRRFWHRAHRKL-OH), the IC50 [1] is reported as 34.9 µM, the IC50 [2] is reported as 23.9 µM and the Activity [3] is reported as “inactive”. For the same molecule, the MIC [4] was 1.56 µM (≈ 4.16 µg/mL), the Activity [5] was 16 nm and the Activity [6] was 95%. For the same molecule, the Activity [7] was “Active”, the inhibition at 3.13 µM [8] was 7% and the inhibition [9] was “Dose-dependent effect”. The Activity [10] was 66%, the inhibition at 12.6 µM [11] was 30% and the inhibition at 12.6 µM [12] was 24%. For the same molecule, the Activity [13] was “Dose-dependent effect”, the Activity [14] was 73% and the MIC [15] was 1.56 µM (≈ 4.16 µg/mL). For the same molecule, the inhibition at 6.25 µM [16] was 8%, the inhibition at 3.13 µM [17] was 24% and the MIC [18] was 3.13 µM (≈ 8.35 µg/mL). The Activity [19] was “Dose-dependent effect”, the Activity [20] was 20% and the Activity [21] was “Dose-dependent effect”. The Activity [22] was 92%, the Activity [23] was 24 nm and the inhibition [24] was “Dose-dependent effect”. It also gave a Kd [25] of 10.8 µM, an Activity [26] of 80 nm and an Activity [27] of 88%. It also gave an MIC [28] of 1.56 µM (≈ 4.16 µg/mL), an Activity [29] of 68 nm and an IC50 [30] of 51 µM. For the same molecule, the viability at 1 h, up to 12.6 µM [31] was 80%, the Activity [32] was “Active” and the Activity [33] was 7 nm. For the same molecule, the inhibition at 6.25 µM [34] was 28%, the HC50 at 1 h [35] was > 500 µM and the MIC [36] was 1.56 µM (≈ 4.16 µg/mL). The Activity [37] was 400 nm, the MIC [38] was 1.56 µM (≈ 4.16 µg/mL) and the Ka [39] was 92.3 mM⁻¹. For the same molecule, the MIC [40] was 3.13 µM (≈ 8.35 µg/mL).

In the case of GENTAMICIN, the Activity [41] is reported as “Active” and the Activity [42] is reported as “Active”.

With `CCCCCCCCCCCC(=O)N[C@@H](CO)C(=O)N[C@@H](CCCCN)C(=O)N[C@H](C(=O)N[C@@H](Cc1c[nH]c2ccccc12)C(=O)N[C@@H](CCCNC(=N)N)C(=O)N[C@@H](Cc1cnc[nH]1)C(=O)N[C@@H](Cc1c[nH]c2ccccc12)C(=O)N[C@@H](CCCNC(=N)N)C(=O)N[C@@H](CCCNC(=N)N)C(=O)N[C@@H](Cc1ccccc1)C(=O)N[C@@H](Cc1c[nH]c2ccccc12)C(=O)N[C@@H](Cc1cnc[nH]1)C(=O)N[C@@H](CCCNC(=N)N)C(=O)N[C@@H](C)C(=O)N[C@@H](Cc1cnc[nH]1)C(=O)N[C@@H](CCCNC(=N)N)C(=O)N[C@@H](CCCCN)C(=O)N[C@@H](CC(C)C)C(=O)O)C(C)C` (Lauroyl-SKVWRHWRRFWHRAHRKL-OH) the IC50 [1] was 25.8 µM, the IC50 [2] was 20.4 µM and the Activity [3] was “inactive”. The Activity [43] was “Active”, the MIC [4] was 1.56 µM (≈ 4.25 µg/mL) and the Activity [5] was 16 nm. For the same molecule, the Activity [6] was 81%, the inhibition at 3.13 µM [8] was 17% and the inhibition [9] was “Dose-dependent effect”. It also gave an Activity [10] of 42%, an inhibition at 12.6 µM [11] of 31% and an inhibition at 12.6 µM [12] of 33%. For the same molecule, the Activity [13] was “Dose-dependent effect”, the Activity [14] was 58% and the MIC [15] was 3.13 µM (≈ 8.53 µg/mL). The inhibition at 6.25 µM [16] was 29%, the inhibition at 3.13 µM [17] was 26% and the MIC [18] was 3.13 µM (≈ 8.53 µg/mL). For the same molecule, the Activity [19] was “Dose-dependent effect”, the Activity [20] was 20% and the Activity [21] was “Dose-dependent effect”. For the same molecule, the Activity [22] was 54%, the Activity [44] was “Active” and the Activity [23] was 20 nm. The inhibition [24] was “Dose-dependent effect”, the Kd [25] was 7.35 µM and the Activity [26] was 66 nm. It also gave an Activity [27] of 64%, an MIC [28] of 1.56 µM (≈ 4.25 µg/mL) and an Activity [29] of 350 nm. The IC50 [30] was 21.2 µM, the viability at 1 h, up to 12.6 µM [31] was 80% and the Activity [33] was 108 nm. The inhibition at 6.25 µM [34] was 27%, the HC50 at 1 h [35] was > 500 µM and the MIC [36] was 3.13 µM (≈ 8.53 µg/mL). For the same molecule, the MIC [38] was 3.13 µM (≈ 8.53 µg/mL), the Ka [39] was 136 mM⁻¹ and the MIC [40] was 6.25 µM (≈ 17 µg/mL).
